These results are taken from patent US20220304955A1 (Nacuity Pharmaceuticals, Inc., priority 2021, published 2022).

Data set [1] concerns N27 cells. The data set is described as follows: Cellular ferroptosis assay, cell viability by MTT. It is filed as cell-based, rat. The following applies: for preventing ferroptosis, NAC compared with NACA: 50 μM in media or PBS, erastin 0.1-8 μM, RSL3 3-400 nM or glutamate 3-400 mM, 24 hr; for anti-ferroptotic activity on pretreatment prior to ferroptosis induction: 50 or 500 μM in PBS for 24 hours, then erastin, RSL3 or glutamate for additional 24 hours; for prevention of ferroptosis induced by erastin, RSL3 and glutamate (cell viability): erastin 2 μM, RSL3 100 nM or glutamate 100 mM, 24 hours, added at same time, liproxstatin-1 4-250 nM, NAC, NACA (in water), diNACA (in NMP) 8-500 μM; for anti-ferroptotic activity on post-treatment: erastin, RSL3 or glutamate for 5 hours, then 50 or 500 μM in PBS for additional 19 hours. Here is the method:
Materials and Methods. […] Cells were cultured at 37° C. with 5% CO2.

Data set [2] relates to C. elegans. The data set is described as follows: Diethyl maleate (DEM) assay, survival of C. elegans. The following applies: for % alive: then 10 mM DEM, scored at 24 hours. It is filed as in vivo, Caenorhabditis elegans. Here is the method: Materials and Methods. Effects of NAC, NACA and diNACA on diethyl maleate (DEM; Sigma-Aldrich)-induced toxicity in C. elegans was evaluated. (10 mM DEM alone conjugates GSH causing 50% depletion of GSH and 50% lethality after 24 hour exposure (Jenkins et al., 2020)). DEM was added to neat DMSO and added to molten NGM at 55° C. to a final concentration of 10 mM DEM and 0.5% v/v DMSO. Plates were seeded with E. coli strain OP50. Data were collected at 25 (±1) ° C. using the temperature sensitive-sterile strain TJ1060. A synchronous population was obtained by transferring egg-laying adults to fresh plates at 16° C. for 2-3 hours. The adults were removed and the plates with eggs then transferred to 25° C. to ensure sterility. After 48 hours at 25° C., when worms were at the late L4/young adult stage, 70 nematodes were transferred to fresh plates containing either vehicle control, 1 mM NAC, 10 mM NAC, 1 mM NACA, 10 mM NACA, 1 mM diNACA, 10 mM diNACA (all with 1.0% v/v DMSO). Worms were aged at 25° C. for a further 4 days and then transferred to DEM plates, 35-45 per plate, two plates per treatment. Survival, determined by touch-provoked movement, was scored at 24 hours after exposure to DEM.

In data set [3] the test system is Caenorhabditis elegans. Briefly: Caenorhabditis elegans Lifespan assay. It is filed as in vivo. The following applies: for Median survival: from late L4 larval/young adult stage, 25 °C, strain TJ1060. Here is the method:
NAC and NACA were dissolved in sterile water then added to the molten NGM at 55° C. Media containing equivalent vehicle alone (1% v/v DMSO) was used for comparison. 1% v/v DMSO was also added to NAC and NACA plates for consistency, as DMSO itself may affect lifespan. Standard overnight culture of the Escherichia coli strain OP50 was used as the food source. Lifespan data were collected at 25 (±1) ° C. using the temperature sensitive-sterile strain TJ1060 [spe-9(hc88); rrf-3(b26)] as a proxy for wildtype. A developmentally synchronous population was obtained by transferring egg-laying adults to fresh plates at 16° C. for 4 hours. The adults were removed and the plates with eggs then transferred to 25° C. to ensure sterility. After 48 hours at 25° C., when worms were at the late L4 larval/young adult stage, 25-35 nematodes were transferred to fresh plates containing either vehicle control (1% v/v DMSO), 1 mM NAC, 10 mM NAC, 1 mM NACA, 10 mM NACA, 1 mM diNACA, and 10 mM diNACA. All plates were coded to allowing blinding of the experimenter to the treatment regime during scoring. Nematodes were scored for survival at 1 to 2-day intervals and transferred to freshly prepared plates as needed (every 2-4 days). Worms lost not due to death were recorded as censored.
Results. Data was analyzed using GraphPad Prism 9, with survival curves compared using a long-rank (Mantel-Cox) test. P values are given for pair-wise comparisons to the vehicle control population.

For data set [4], the system named is C. elegans. Conditions: 10 mM DEM alone, 24 hour exposure; cited from earlier work.
Data set [5] deals with N27 cells. The following applies: for solvent concentration over which cell viability is reduced: rat, 24 h. How it is done:
Viability of cells treated with water, dimethyl sulfoxide (DMSO) or NMP (0.3-20% v/v) for 24 hours. Data are means±SEM, n=3.
Materials and Methods. […] N27 cells, derived from E12 rat mesencephalic tissue (Merck, Australia), were cultured in RPMI 1640 media (ThermoFisher Scientific) supplemented with 10% fetal calf serum (Bovogen, Australia) and penicillin and streptomycin (ThermoFisher Scientific, Australia). Cells were cultured at 37° C. with 5% CO2. Cellular ferroptosis assays were used to evaluate anti-ferroptotic activity of test articles (Southon et al., 2019). Liproxstatin-1 (lip1) was used as an anti-ferroptotic control. […] Cell viability was measured by 3-[4,5-dimethylthiazol-2-yl]-2,5-diphenyltetrazolium bromide (MTT) assay, absorbance measured at 570 nm using a PowerWave XS microplate spectrophotometer (BioTek Instruments, Winooski, USA), and expressed as a percentage of control cells (Southon et al., 2019).
The toxicity profile of solvents NMP, DMSO and water were evaluated in N27 cells (FIG. 2).

For data set [6] the following is noted: humans, oral dose of 600 mg; cited from earlier work.
In data set [7] the test system is C. elegans. The following applies: Drug Age Database listing; cited from earlier work.

Where a name gives a salt, the structure may show the parent alone. Positions of bridges follow the written chain, without caps; N, C: chain ends. Non-standard residues stand in square brackets, D forms with d. Residues, ends and D or L forms follow the SMILES beside them. *: point of attachment. Ileψ(thiazoline)Cys = CC[C@H](C)[C@H](N)C1=N[C@H](C(=O)*)CS1; dOrn = NCCC[C@@H](N)C(=O)O

For the compound `CC(=O)N[C@@H](CS)C(N)=O`, the “preventing ferroptosis, NAC compared with NACA” value in data set [1] was “similarly effective at preventing ferroptosis”. The “anti-ferroptotic activity on pretreatment prior to ferroptosis induction” value in data set [1] is “did not differentiate anti-ferroptotic activity”. Also, in data set [1], the “prevention of ferroptosis induced by erastin, RSL3 and glutamate (cell viability)” value (“prevention of ferroptosis induced” below) was “efficacy in the micromolar range”. Moreover, the “anti-ferroptotic activity on post-treatment” value in data set [1] is reported as “did not differentiate anti-ferroptotic activity”. The “rescue from DEM-induced toxicity” value in data set [2] (1 mM) and in data set [2] (10 mM) was “rescue” each time. For the same compound, the “% alive” value in data set [2] (1 mM pre-treatment 4 days) was determined as 91%; in data set [2] (10 mM pre-treatment 4 days) it was 98%. The values for the increase in lifespan result in data set [3] (1 mM) and in data set [3] (10 mM) were “minor increase” and “marked increase in lifespan”, respectively. Besides, the “Median survival” value in data set [3] (1 mM in NGM) stood at 10 days; in data set [3] (10 mM in NGM), 16 days.

For the compound `CCOC(=O)/C=C\C(=O)OCC` [DEM, diethyl maleate], in data set [4], the “depletion of GSH” value was 50% and the lethality was 50%.

As for `C[S+](C)[O-]` [DMSO, dimethyl sulfoxide], the “solvent concentration over which cell viability is reduced” value in data set [5] is “over 1.3%”.

For the compound `Clc1cccc(CN=C2Nc3ccccc3NC23CCNCC3)c1` [Lip1, Liproxstatin-1, reference compound], the “prevention of ferroptosis induced” value in data set [1] was “nanomolar efficacy”.

As to `CC(=O)N[C@@H](CS)C(=O)O` [NAC, N-acetylcysteine, reference compound], in data set [1], the “preventing ferroptosis, NAC compared with NACA” value is given as “similarly effective at preventing ferroptosis”; the “anti-ferroptotic activity on pretreatment prior to ferroptosis induction” value is recorded as “did not differentiate anti-ferroptotic activity”; the “prevention of ferroptosis induced” value is on record as “efficacy in the micromolar range”; the “anti-ferroptotic activity on post-treatment” value is given as “did not differentiate anti-ferroptotic activity”. Also, in data set [6], the plasma half-life is 2.5 h and the “time after administration at which no NAC is detectable” value was 10 to 12 h. Moreover, the “% alive” value in data set [2] (1 mM pre-treatment 4 days) amounted to 80%. Moreover, the “rescue from DEM-induced toxicity” value in data set [2] (10 mM) was “rescue”. The “% alive” value in data set [2] (10 mM pre-treatment 4 days) amounted to 89%. Also, in data set [3] (1 mM in NGM), the “Median survival” value amounted to 10 days. In data set [3] (10 mM), the increase in lifespan result was “minor increase”. Besides, in data set [3] (10 mM in NGM), the “Median survival” value turned out to be 10 days. The “life extension of C. elegans” value in data set [7] is 64%.

For `CN1CCCC1=O` [NMP, N-methyl pyrrolidone], the “solvent concentration over which cell viability is reduced” value in data set [5] is “over 0.3%”.

For `O` [Water, water], the “effect of solvent on cell viability” value in data set [5] is “did not reduce cell viability”.

Regarding `CC(=O)Nc1ccc(O)cc1` [acetaminophen], the “life extension of C. elegans” value in data set [7] is 66%.

Consider `CC[C@H](C)[C@H](N)C1=N[C@H](C(=O)N[C@@H](CC(C)C)C(=O)N[C@H](CCC(=O)O)C(=O)N[C@H](C(=O)N[C@H]2CCCCNC(=O)[C@H](CC(N)=O)NC(=O)[C@@H](CC(=O)O)NC(=O)[C@H](Cc3cnc[nH]3)NC(=O)[C@@H](Cc3ccccc3)NC(=O)[C@H]([C@@H](C)CC)NC(=O)[C@@H](CCCN)NC2=O)[C@@H](C)CC)CS1` [bacitracin] ({Ileψ(thiazoline)Cys}-L[dE]IK[dOrn]I[dF]H[dD]N; lactam 4-C), for which, in data set [7], the “life extension of C. elegans” value is on record as 74%.

With `Cc1ccc2c(c1)sc(-c1ccc(N(C)C)cc1)[n+]2C.[Cl-]` [thioflavin T], the “life extension of C. elegans” value in data set [7] is recorded as 78%.
